Data as given in patent US20240409585A1, “MACROCYCLIC IMMUNOMODULATORS” (priority 2021, published 2024).
Bridge positions count the residues as written; N and C are the ends. Square brackets hold non-standard residues; d marks the D form. Peptide text beside a SMILES is read from it. * marks the point of attachment. ξ: configuration not given here. Bip(3'-COOH) = N[C@@H](Cc1ccc(-c2cccc(C(=O)O)c2)cc1)C(=O)O; Phe(3,4-Cl2) = N[C@@H](Cc1ccc(Cl)c(Cl)c1)C(=O)O; dPhe(3-CF3) = N[C@H](Cc1cccc(C(F)(F)F)c1)C(=O)O; Phe(4-CONH2) = NC(=O)c1ccc(C[C@H](N)C(=O)O)cc1; Phe(4-COOH) = N[C@@H](Cc1ccc(C(=O)O)cc1)C(=O)O; Phe(4-CH2NH2) = NCc1ccc(C[C@H](N)C(=O)O)cc1; Bip = N[C@@H](Cc1ccc(-c2ccccc2)cc1)C(=O)O; Phe(3-Cl) = N[C@@H](Cc1cccc(Cl)c1)C(=O)O; Phe(3-Me) = Cc1cccc(C[C@H](N)C(=O)O)c1; Val(3-OH) = CC(C)(O)[C@H](N)C(=O)O; 4Pal = N[C@@H](Cc1ccncc1)C(=O)O; Cha = N[C@@H](CC1CCCCC1)C(=O)O; Cit = NC(=O)NCCC[C@H](N)C(=O)O; Ile(3ξ) = CCC(C)[C@H](N)C(=O)O; Thr(3ξ) = CC(O)[C@H](N)C(=O)O; Pen = CC(C)(S)[C@H](N)C(=O)O; ξCha = NC(CC1CCCCC1)C(=O)O; hSer = N[C@@H](CCO)C(=O)O; Carboxymethyl = O=C(O)C*; NMeA = CN[C@@H](C)C(=O)O; Dab = NCC[C@H](N)C(=O)O; ξC = NC(CS)C(=O)O

target: T1, PE-labeled human PD-L1-Ig binding to Jurkat cell line over-expressing human PD-1 (Jurkat-PD-1) (Homo sapiens, UniProt Q15116); experiment: Jurkat-PD-1 Cell Binding High-Content Screening Assay (CBA): Method 1; settings: Jurkat-hPD-1 cells, PE-labeled PD-L1-Ig 20 nM final; read-out: Jurkat HPDL1 PD1 IC50 (uM) (Method 1)
T1 construct: expressed in transfected cells; host or cells: Jurkat
T1 sequence (Q15116 25-288): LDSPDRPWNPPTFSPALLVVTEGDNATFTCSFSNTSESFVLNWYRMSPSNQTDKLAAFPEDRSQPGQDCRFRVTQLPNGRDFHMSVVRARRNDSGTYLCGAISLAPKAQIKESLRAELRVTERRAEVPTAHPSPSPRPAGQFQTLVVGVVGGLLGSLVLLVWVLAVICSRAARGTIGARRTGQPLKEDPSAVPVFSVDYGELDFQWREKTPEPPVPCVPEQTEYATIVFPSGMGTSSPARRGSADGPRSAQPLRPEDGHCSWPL

Structure (SMILES) | IC50 [µM]
Cc1cccc(C[C@@H]2NC(=O)[C@H](CC(=O)O)NC(=O)[C@H](Cc3ccc(C(=O)O)cc3)NC(=O)[C@H](Cc3ccc(OCC(=O)O)cc3)NC(=O)CSC[C@@H](C(N)=O)NC(=O)[C@H]([C@@H](C)O)NC(=O)[C@H](C(C)C)NC(=O)[C@H](CC3CCCCC3)NC(=O)[C@H](CC(N)=O)NC(=O)[C@@H](CC(C)C)NC(=O)[C@H](C)N(C)C(=O)[C@H](C(C)C)NC(=O)[C@H](Cc3ccc(-c4ccccc4)cc3)NC(=O)[C@H](CC(C)C)NC2=O)c1 [Compound 1683] ({CH2CO}-Y(Carboxymethyl)[Phe(4-COOH)]D[Phe(3-Me)]L[Bip]V[NMeA][dL]N[Cha]VTC-NH2; thioether N-14) | 0.03
CC(C)C[C@H]1NC(=O)[C@H](C)N(C)C(=O)[C@H](Cc2ccc(C(=O)O)cc2)NC(=O)[C@H](Cc2ccc(-c3ccccc3)cc2)NC(=O)[C@H](CCC(N)=O)NC(=O)[C@H](Cc2c[nH]c3ccccc23)NC(=O)[C@H](CC(=O)O)NC(=O)[C@H](Cc2ccc(OCC(=O)O)cc2)NC(=O)[C@H](Cc2ccc(OCC(=O)O)cc2)NC(=O)CSC[C@@H](C(=O)N[C@@H](CO)C(N)=O)NC(=O)[C@H](CCC(=O)O)NC(=O)[C@H](C(C)(C)O)NC(=O)[C@H](CC2CCCCC2)NC(=O)[C@H](CCN)NC1=O [Compound 2198] ({CH2CO}-Y(Carboxymethyl)Y(Carboxymethyl)DWQ[Bip][Phe(4-COOH)][NMeA][dL][Dab][Cha][Val(3-OH)]ECS-NH2; thioether N-14) | 0.11
CC(C)C[C@@H]1NC(=O)[C@H](CCCNC(=N)N)NC(=O)[C@H](Cc2cccc(Cl)c2)NC(=O)[C@H](C)N(C)C(=O)[C@H](CCCNC(=N)N)NC(=O)[C@H](Cc2ccc(-c3ccccc3)cc2)NC(=O)[C@H](C(C)C)NC(=O)[C@H](Cc2c[nH]c3ccccc23)NC(=O)[C@H](CC(=O)O)NC(=O)[C@H](Cc2ccc(O)cc2)NC(=O)[C@H](Cc2ccccc2)NC(=O)CSC[C@@H](C(=O)NCC(N)=O)NC(=O)[C@H](CO)NC(=O)[C@H](C(C)C)NC1=O [Compound 1014] ({CH2CO}-FYDWV[Bip]R[NMeA][Phe(3-Cl)]RLVSCG-NH2; thioether N-14) | 0.2
CC(C)C[C@@H]1NC(=O)[C@H](Cc2c[nH]c3ccccc23)NC(=O)[C@H](CC(=O)O)NC(=O)[C@H](Cc2ccc(O)cc2)NC(=O)[C@H](Cc2ccccc2)NC(=O)CSC[C@@H](C(=O)N[C@@H](C)C(N)=O)NC(=O)[C@H](CO)NC(=O)[C@H](C(C)C)NC(=O)[C@H](CC(C)C)NC(=O)[C@H](CC(N)=O)NC(=O)[C@@H](C)NC(=O)[C@H](C)N(C)C(=O)[C@H](CCC(=O)O)NC(=O)[C@H](Cc2ccc(-c3ccccc3)cc2)NC1=O [Compound 1768] ({CH2CO}-FYDWL[Bip]E[NMeA][dA]NLVSCA-NH2; thioether N-14) | 0.04
Cc1cccc(C[C@@H]2NC(=O)[C@H](CC(=O)O)NC(=O)[C@H](Cc3ccc(C(=O)O)cc3)NC(=O)[C@H](C(C)O)NC(=O)CSC[C@@H](C(=O)N[C@@H](CCN)C(N)=O)NC(=O)[C@H](CO)NC(=O)[C@H](C(C)(C)O)NC(=O)[C@H](CC3CCCCC3)NC(=O)[C@H](CCN)NC(=O)[C@@H](CC(C)C)NC(=O)[C@H](C)N(C)C(=O)[C@H](Cc3ccc(OCC(=O)O)cc3)NC(=O)[C@H](Cc3ccc(-c4ccccc4)cc3)NC(=O)[C@H](Cc3ccc(OCC(=O)O)cc3)NC2=O)c1 (stereo partly drawn) [Compound 2151] ({CH2CO}-[Thr(3ξ)][Phe(4-COOH)]D[Phe(3-Me)]Y(Carboxymethyl)[Bip]Y(Carboxymethyl)[NMeA][dL][Dab][Cha][Val(3-OH)]SC[Dab]-NH2; thioether N-14) | 0.02
CC(C)C[C@@H]1NC(=O)[C@H](Cc2c[nH]c3ccccc23)NC(=O)[C@H](CC(=O)O)NC(=O)[C@H](Cc2ccc(OCC(=O)O)cc2)NC(=O)[C@H](Cc2ccncc2)NC(=O)CSC[C@@H](C(=O)N[C@@H](C)C(N)=O)NC(=O)[C@H](CO)NC(=O)[C@H](C(C)C)NC(=O)[C@H](CC(C)C)NC(=O)[C@H](CC(N)=O)NC(=O)[C@@H](C)NC(=O)[C@H](C)N(C)C(=O)[C@H](C(C)C)NC(=O)[C@H](Cc2ccc(-c3ccccc3)cc2)NC1=O [Compound 1563] ({CH2CO}-[4Pal]Y(Carboxymethyl)DWL[Bip]V[NMeA][dA]NLVSCA-NH2; thioether N-14) | 0.02
Cc1cccc(C[C@@H]2NC(=O)[C@H](CC(=O)O)NC(=O)[C@H](Cc3ccc(OCC(=O)O)cc3)NC(=O)[C@H](Cc3ccc(OCC(=O)O)cc3)NC(=O)CSC(C)(C)[C@@H](C(=O)N[C@H](C)C(N)=O)NC(=O)[C@H](CCCNC(N)=O)NC(=O)[C@H](C(C)C)NC(=O)[C@H](CC3CCCCC3)NC(=O)[C@H](CCN)NC(=O)[C@@H](CC(C)C)NC(=O)[C@H](C)N(C)C(=O)[C@H](Cc3cnc[nH]3)NC(=O)[C@H](Cc3ccc(-c4ccccc4)cc3)NC(=O)[C@H](Cc3ccc(C(N)=O)cc3)NC2=O)c1 [Compound 2126] ({CH2CO}-Y(Carboxymethyl)Y(Carboxymethyl)D[Phe(3-Me)][Phe(4-CONH2)][Bip]H[NMeA][dL][Dab][Cha]V[Cit][Pen][dA]-NH2; thioether N-14) | 0.66
CC(C)C[C@@H]1NC(=O)[C@H](CCCNC(=N)N)NC(=O)[C@@H](CC(C)C)NC(=O)[C@H](C)N(C)C(=O)[C@H](CCCNC(=N)N)NC(=O)[C@H](Cc2ccc(-c3ccccc3)cc2)NC(=O)[C@H](C(C)C)NC(=O)[C@H](Cc2ccc(Cl)c(Cl)c2)NC(=O)[C@H](CC(=O)O)NC(=O)[C@H](Cc2ccc(O)cc2)NC(=O)[C@H](CC(N)=O)NC(=O)CSC[C@@H](C(=O)N[C@@H](C)C(N)=O)NC(=O)[C@H]([C@@H](C)O)NC(=O)[C@H](C(C)C)NC1=O [Compound 1195] ({CH2CO}-NYD[Phe(3,4-Cl2)]V[Bip]R[NMeA][dL]RLVTCA-NH2; thioether N-14) | 0.32
CC(C)C[C@H]1NC(=O)[C@H](C)N(C)C(=O)[C@H](C(C)C)NC(=O)[C@H](Cc2ccc(-c3ccccc3)cc2)NC(=O)[C@H](C(C)C)NC(=O)[C@H](Cc2c[nH]c3ccccc23)NC(=O)[C@H](CC(=O)O)NC(=O)[C@H](Cc2ccc(CN)cc2)NC(=O)[C@H](Cc2ccc(OCC(=O)O)cc2)NC(=O)CSC[C@@H](C(N)=O)NC(=O)[C@H](CO)NC(=O)[C@H](C(C)C)NC(=O)[C@H](CC2CCCCC2)NC(=O)[C@H](CC(N)=O)NC1=O [Compound 2243] ({CH2CO}-Y(Carboxymethyl)[Phe(4-CH2NH2)]DWV[Bip]V[NMeA][dL]N[Cha]VSC-NH2; thioether N-14) | 0.02
CCC(C)[C@@H]1NC(=O)[C@H](Cc2ccc(-c3ccccc3)cc2)NC(=O)[C@H](C(C)C)NC(=O)[C@H](Cc2c[nH]c3ccccc23)NC(=O)[C@H](CC(=O)O)NC(=O)[C@H](Cc2ccc(O)cc2)NC(=O)[C@H](CC(N)=O)NC(=O)CSC[C@@H](C(=O)N[C@@H](C)C(N)=O)NC(=O)[C@H](C(C)O)NC(=O)[C@H](C(C)C)NC(=O)[C@H](CC2CCCCC2)NC(=O)[C@H](CCN)NC(=O)[C@@H](CC(C)C)NC(=O)[C@H](C)N(C)C1=O (stereo partly drawn) [Compound 2061] ({CH2CO}-NYDWV[Bip][Ile(3ξ)][NMeA][dL][Dab][Cha]V[Thr(3ξ)]CA-NH2; thioether N-14) | 0.01
CC(C)C[C@@H]1NC(=O)[C@H](Cc2c[nH]c3ccccc23)NC(=O)[C@H](CC(=O)O)NC(=O)[C@H](CCO)NC(=O)[C@H](Cc2ccccc2)NC(=O)CSC[C@@H](C(=O)N[C@@H](C)C(=O)N[C@@H](CCC(=O)O)C(N)=O)NC(=O)[C@H](CO)NC(=O)[C@H](C(C)C)NC(=O)[C@H](CC(C)C)NC(=O)[C@H](CC(N)=O)NC(=O)[C@@H](CC(C)C)NC(=O)[C@H](C)N(C)C(=O)[C@H](C(C)C)NC(=O)[C@H](Cc2ccc(-c3ccccc3)cc2)NC1=O [Compound 2009] ({CH2CO}-F[hSer]DWL[Bip]V[NMeA][dL]NLVSCAE-NH2; thioether N-14) | 0.02
CC(C)C[C@@H]1NC(=O)[C@H](CCCNC(=N)N)NC(=O)[C@@H](Cc2cccc(C(F)(F)F)c2)NC(=O)[C@H](C)N(C)C(=O)[C@H](CCCNC(=N)N)NC(=O)[C@H](Cc2ccc(-c3ccccc3)cc2)NC(=O)[C@H](C(C)C)NC(=O)[C@H](Cc2c[nH]c3ccccc23)NC(=O)[C@H](CC(=O)O)NC(=O)[C@H](Cc2ccc(O)cc2)NC(=O)[C@H](Cc2ccccc2)NC(=O)CSC[C@@H](C(=O)N[C@@H](C)C(N)=O)NC(=O)[C@H]([C@@H](C)O)NC(=O)[C@H](C(C)C)NC1=O [Compound 1075] ({CH2CO}-FYDWV[Bip]R[NMeA][dPhe(3-CF3)]RLVTCA-NH2; thioether N-14) | 0.55
CCC(C)[C@@H]1NC(=O)[C@H](Cc2ccc(-c3ccccc3)cc2)NC(=O)[C@H](C(C)C)NC(=O)[C@H](Cc2c[nH]c3ccccc23)NC(=O)[C@H](CC(N)=O)NC(=O)[C@H](Cc2ccc(-c3cccc(C(=O)O)c3)cc2)NC(=O)[C@H](Cc2ccncc2)NC(=O)CSC[C@@H](C(=O)N[C@@H](C)C(=O)N[C@@H](CCCCN)C(N)=O)NC(=O)[C@H](C(C)O)NC(=O)[C@H](C(C)C)NC(=O)C(CC2CCCCC2)NC(=O)[C@H](CC(N)=O)NC(=O)[C@@H](CC(C)C)NC(=O)[C@H](C)N(C)C1=O (stereo partly drawn) [Compound 2019] ({CH2CO}-[4Pal][Bip(3'-COOH)]NWV[Bip][Ile(3ξ)][NMeA][dL]N[ξCha]V[Thr(3ξ)]CAK-NH2; thioether N-14) | 0.28
CCC(C)[C@@H]1NC(=O)[C@H](Cc2ccc(-c3ccccc3)cc2)NC(=O)[C@H](C(C)C)NC(=O)[C@H](Cc2c[nH]c3ccccc23)NC(=O)[C@H](CC(=O)O)NC(=O)[C@H](Cc2ccc(OCC(=O)O)cc2)NC(=O)[C@H](C(C)O)NC(=O)CSC[C@@H](C(N)=O)NC(=O)[C@H](C(C)O)NC(=O)[C@H](C(C)C)NC(=O)[C@H](CC2CCCCC2)NC(=O)[C@H](CCN)NC(=O)[C@@H](CC(C)C)NC(=O)[C@H](C)N(C)C1=O (stereo partly drawn) [Compound 2248] ({CH2CO}-[Thr(3ξ)]Y(Carboxymethyl)DWV[Bip][Ile(3ξ)][NMeA][dL][Dab][Cha]V[Thr(3ξ)]C-NH2; thioether N-14) | 0.04
CCC(C)[C@@H]1NC(=O)[C@H](Cc2ccc(-c3ccccc3)cc2)NC(=O)[C@H](C(C)C)NC(=O)[C@H](Cc2c[nH]c3ccccc23)NC(=O)[C@H](CC(=O)O)NC(=O)[C@H](Cc2ccc(O)cc2)NC(=O)[C@H](CC(N)=O)NC(=O)CSCC(C(=O)NCC(=O)N[C@@H](CCN)C(=O)O)NC(=O)[C@H](C(C)O)NC(=O)[C@H](C(C)C)NC(=O)[C@H](CC2CCCCC2)NC(=O)[C@H](CC(N)=O)NC(=O)[C@@H](CC(C)C)NC(=O)[C@H](C)N(C)C1=O (stereo partly drawn) [Compound 2003] ({CH2CO}-NYDWV[Bip][Ile(3ξ)][NMeA][dL]N[Cha]V[Thr(3ξ)][ξC]G[Dab]-OH; thioether N-14) | 0.02
